Results: the NIST ThermoML archive (doi:10.1016/j.jct.2005.03.020)

How the values were obtained:
[1] = excess molar enthalpy (molar enthalpy of mixing); xn = mol fraction of the nth substance listed; conditions: 298.15 K, 101.33 kPa, Liquid
[2] = xn = mol fraction of the nth substance listed; conditions: 298.15 K, 101.33 kPa, Liquid
[3] = 298.15 K; 101.33 kPa; Liquid
[4] = refractive index (Na D-line) (dimensionless); conditions: 298.15 K; 101.33 kPa; Liquid; Standard Abbe refractometry

CCCCC(=O)OCC [ethyl pentanoate] + ClCCCCCl
Conditions	excess molar enthalpy [kcal/mol]	mass density [kg/m3]
[1], x2 = 0.0443	-0.00368	–
[1], x2 = 0.0938	-0.00985	–
[1], x2 = 0.1472	-0.0156	–
[1], x2 = 0.2021	-0.0229	–
[1], x2 = 0.2576	-0.0317	–
[1], x2 = 0.3103	-0.04	–
[1], x2 = 0.3615	-0.0492	–
[1], x2 = 0.4093	-0.0553	–
[1], x2 = 0.4542	-0.0607	–
[1], x2 = 0.4637	-0.062	–
[1], x2 = 0.5038	-0.0642	–
[1], x2 = 0.5509	-0.0653	–
[1], x2 = 0.6143	-0.0639	–
[1], x2 = 0.6866	-0.0592	–
[1], x2 = 0.7631	-0.0504	–
[1], x2 = 0.8429	-0.0372	–
[1], x2 = 0.9262	-0.0202	–
[2], x1 = 0.0426	–	1118.97
[2], x1 = 0.0881	–	1103.57
[2], x1 = 0.1345	–	1088.34
[2], x1 = 0.1844	–	1072.46
[2], x1 = 0.2407	–	1055.13
[2], x1 = 0.2932	–	1039.54
[2], x1 = 0.3462	–	1024.28
[2], x1 = 0.4021	–	1008.72
[2], x1 = 0.4541	–	994.67
[2], x1 = 0.5187	–	977.83
[2], x1 = 0.5829	–	961.7
[2], x1 = 0.6452	–	946.59
[2], x1 = 0.7045	–	932.66
[2], x1 = 0.7796	–	915.67
[2], x1 = 0.8521	–	899.89
[2], x1 = 0.925	–	884.57

CCCCC(=O)OCC [ethyl pentanoate] + ClCCCCl
Conditions	excess molar enthalpy [kcal/mol]	mass density [kg/m3]
[1], x2 = 0.0493	-0.00743	–
[1], x2 = 0.0986	-0.0147	–
[1], x2 = 0.1536	-0.0238	–
[1], x2 = 0.2082	-0.0333	–
[1], x2 = 0.261	-0.0426	–
[1], x2 = 0.3126	-0.052	–
[1], x2 = 0.3627	-0.061	–
[1], x2 = 0.4084	-0.066	–
[1], x2 = 0.4405	-0.0697	–
[1], x2 = 0.4492	-0.0707	–
[1], x2 = 0.5044	-0.0725	–
[1], x2 = 0.5692	-0.0725	–
[1], x2 = 0.6438	-0.0687	–
[1], x2 = 0.7284	-0.0593	–
[1], x2 = 0.8181	-0.0439	–
[1], x2 = 0.9124	-0.0246	–
[2], x1 = 0.0395	–	1159.55
[2], x1 = 0.0785	–	1141.75
[2], x1 = 0.1207	–	1123.43
[2], x1 = 0.1642	–	1105.29
[2], x1 = 0.2098	–	1087.19
[2], x1 = 0.2576	–	1069.12
[2], x1 = 0.3081	–	1050.97
[2], x1 = 0.3623	–	1032.41
[2], x1 = 0.4179	–	1014.41
[2], x1 = 0.4804	–	995.25
[2], x1 = 0.538	–	978.58
[2], x1 = 0.6036	–	960.5
[2], x1 = 0.744	–	925.06
[2], x1 = 0.8249	–	906.38
[2], x1 = 0.9085	–	888.3

CCCCC(=O)OCC [ethyl pentanoate] + ClCCCl
Conditions	excess molar enthalpy [kcal/mol]	mass density [kg/m3]
[1], x2 = 0.0371	-0.00712	–
[1], x2 = 0.098	-0.0147	–
[1], x2 = 0.126	-0.0245	–
[1], x2 = 0.1732	-0.0363	–
[1], x2 = 0.2196	-0.0475	–
[1], x2 = 0.2666	-0.0614	–
[1], x2 = 0.3122	-0.0744	–
[1], x2 = 0.3542	-0.0839	–
[1], x2 = 0.4265	-0.0924	–
[1], x2 = 0.4641	-0.0946	–
[1], x2 = 0.5103	-0.0954	–
[1], x2 = 0.5638	-0.0959	–
[1], x2 = 0.626	-0.0916	–
[1], x2 = 0.7011	-0.0817	–
[1], x2 = 0.7962	-0.0618	–
[1], x2 = 0.896	-0.0363	–
[2], x1 = 0.0345	–	1220.93
[2], x1 = 0.0687	–	1198.23
[2], x1 = 0.1042	–	1176.06
[2], x1 = 0.1425	–	1153.66
[2], x1 = 0.1817	–	1132.12
[2], x1 = 0.2273	–	1108.84
[2], x1 = 0.2723	–	1087.35
[2], x1 = 0.324	–	1064.47
[2], x1 = 0.3767	–	1042.83
[2], x1 = 0.4332	–	1021.3
[2], x1 = 0.4956	–	999.37
[2], x1 = 0.5633	–	977.31
[2], x1 = 0.6342	–	956.13
[2], x1 = 0.7134	–	934.52
[2], x1 = 0.7992	–	912.89
[2], x1 = 0.894	–	893.96

CCOC(=O)CC [ethyl propanoate]
Conditions	mass density [kg/m3]	refractive index
[3]	884.02	–
[4]	–	1.3815
